Reference: ChEMBL document CHEMBL3352389, “Evaluation of class I HDAC isoform selectivity of largazole analogues” (Bioorg Med Chem Lett, 2014)

Legend:
Histone deacetylase 2 = Histone deacetylase 2 (Homo sapiens, UniProt Q92769); assay: Inhibition of HDAC2 (unknown origin) incubated at 37 degC for 30 mins
Histone deacetylase 1 = Histone deacetylase 1 (Homo sapiens, UniProt Q13547); assay: Inhibition of HDAC1 (unknown origin) incubated at 37 degC for 30 mins
Histone deacetylase 3 = Histone deacetylase 3 (Homo sapiens, UniProt O15379); assay: Inhibition of HDAC3 (unknown origin) incubated at 37 degC for 30 mins
Histone deacetylase 8 = target: T1, Histone deacetylase 8 (Homo sapiens, UniProt Q9BY41); assay: Inhibition of HDAC8 (unknown origin) incubated at 37 degC for 30 mins
T1 sequence (Q9BY41 whole entry): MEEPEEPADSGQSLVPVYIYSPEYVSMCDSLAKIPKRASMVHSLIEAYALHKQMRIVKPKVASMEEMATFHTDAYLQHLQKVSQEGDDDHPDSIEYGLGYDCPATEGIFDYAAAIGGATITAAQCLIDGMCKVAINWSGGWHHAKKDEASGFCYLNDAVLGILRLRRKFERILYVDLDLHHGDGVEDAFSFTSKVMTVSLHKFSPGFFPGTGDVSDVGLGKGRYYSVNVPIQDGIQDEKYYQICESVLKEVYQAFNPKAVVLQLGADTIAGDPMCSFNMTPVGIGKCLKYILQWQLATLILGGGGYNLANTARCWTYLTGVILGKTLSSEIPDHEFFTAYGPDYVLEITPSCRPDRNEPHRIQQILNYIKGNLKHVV

Chain of Histone deacetylase 3 (O15379 whole entry): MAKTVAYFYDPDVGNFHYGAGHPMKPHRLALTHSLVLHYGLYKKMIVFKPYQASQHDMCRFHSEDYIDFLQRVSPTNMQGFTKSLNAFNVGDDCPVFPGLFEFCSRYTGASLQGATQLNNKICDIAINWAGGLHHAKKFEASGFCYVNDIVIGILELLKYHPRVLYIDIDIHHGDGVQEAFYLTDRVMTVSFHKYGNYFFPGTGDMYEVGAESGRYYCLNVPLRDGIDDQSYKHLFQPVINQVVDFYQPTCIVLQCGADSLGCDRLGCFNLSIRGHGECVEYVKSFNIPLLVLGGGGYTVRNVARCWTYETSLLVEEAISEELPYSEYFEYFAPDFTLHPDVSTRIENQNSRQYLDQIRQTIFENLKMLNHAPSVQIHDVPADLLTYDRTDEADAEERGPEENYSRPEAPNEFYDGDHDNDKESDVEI
Chain of Histone deacetylase 2 (Q92769 whole entry): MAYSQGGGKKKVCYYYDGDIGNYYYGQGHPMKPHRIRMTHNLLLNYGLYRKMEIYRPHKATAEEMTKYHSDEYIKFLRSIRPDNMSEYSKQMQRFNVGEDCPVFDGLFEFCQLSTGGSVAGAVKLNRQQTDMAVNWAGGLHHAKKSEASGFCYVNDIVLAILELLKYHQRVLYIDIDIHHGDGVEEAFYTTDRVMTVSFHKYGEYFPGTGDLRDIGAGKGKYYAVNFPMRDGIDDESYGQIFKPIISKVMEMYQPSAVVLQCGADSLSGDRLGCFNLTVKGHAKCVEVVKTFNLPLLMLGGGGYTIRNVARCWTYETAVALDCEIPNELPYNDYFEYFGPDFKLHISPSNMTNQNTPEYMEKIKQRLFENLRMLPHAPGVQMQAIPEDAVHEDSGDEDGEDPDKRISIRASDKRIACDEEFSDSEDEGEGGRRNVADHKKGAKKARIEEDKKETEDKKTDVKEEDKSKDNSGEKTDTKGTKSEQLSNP
Chain of Histone deacetylase 1 (Q13547 whole entry): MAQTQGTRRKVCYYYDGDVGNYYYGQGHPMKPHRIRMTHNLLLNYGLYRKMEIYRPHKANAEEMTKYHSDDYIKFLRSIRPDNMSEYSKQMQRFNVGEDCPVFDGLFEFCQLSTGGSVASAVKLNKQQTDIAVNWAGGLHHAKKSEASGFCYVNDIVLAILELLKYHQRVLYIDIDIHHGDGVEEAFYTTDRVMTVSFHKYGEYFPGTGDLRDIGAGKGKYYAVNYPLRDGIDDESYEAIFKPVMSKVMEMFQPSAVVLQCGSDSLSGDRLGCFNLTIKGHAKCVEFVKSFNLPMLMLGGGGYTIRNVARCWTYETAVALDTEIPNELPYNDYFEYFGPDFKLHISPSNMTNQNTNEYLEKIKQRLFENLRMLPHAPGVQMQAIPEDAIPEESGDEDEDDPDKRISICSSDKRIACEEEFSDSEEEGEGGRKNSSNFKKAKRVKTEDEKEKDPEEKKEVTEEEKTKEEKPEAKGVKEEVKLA

IC50 (Histone deacetylase 2)	IC50 (Histone deacetylase 1)	IC50 (Histone deacetylase 3)	IC50 (Histone deacetylase 8)	IC50 (Histone deacetylase 8; read-out: IC50)	Structure (SMILES)
1.4 nM	0.2 nM	1.1 nM	Not Active	–	C[C@@]12CSC(=N1)c1csc(n1)CNC(=O)C[C@@H](/C=C/CCS)OC(=O)[C@H](Cc1c[nH]cn1)NC2=O
1.4 nM	0.96 nM	1.8 nM	–	790 nM	CC(C)(C)OC(=O)NCCC[C@@H]1NC(=O)[C@]2(C)CSC(=N2)c2csc(n2)CNC(=O)C[C@@H](/C=C/CCS)OC1=O
150 nM	39 nM	100 nM	Not Active	–	C[C@@]12CSC(=N1)c1csc(n1)CNC(=O)C[C@@H](/C=C/CCS)OC(=O)[C@H](CC(=O)O)NC2=O
21 nM	5.5 nM	7.8 nM	Not Active	–	C[C@@]12CSC(=N1)c1csc(n1)CNC(=O)C[C@@H](/C=C/CCS)OC(=O)[C@H](CCN)NC2=O
1.7 nM	0.29 nM	0.68 nM	Not Active	–	C[C@@]12CSC(=N1)c1csc(n1)CNC(=O)C[C@@H](/C=C/CCS)OC(=O)[C@H](Cc1ccccc1)NC2=O
3.1 nM	2.3 nM	4.2 nM	Not Active	–	CC(C)(C)OC(=O)NCC[C@@H]1NC(=O)[C@]2(C)CSC(=N2)c2csc(n2)CNC(=O)C[C@@H](/C=C/CCS)OC1=O
–	0.62 nM	–	–	540 nM	CC(C)(C)OC(=O)n1cnc(C[C@@H]2NC(=O)[C@]3(C)CSC(=N3)c3csc(n3)CNC(=O)C[C@@H](/C=C/CCS)OC2=O)c1

Structure (SMILES)	IC50 (Histone deacetylase 2)	IC50 (Histone deacetylase 1)	IC50 (Histone deacetylase 3)	IC50 (Histone deacetylase 8)	IC50 (Histone deacetylase 8; read-out: IC50)
C[C@@]12CSC(=N1)c1csc(n1)CNC(=O)C[C@@H](/C=C/CCS)OC(=O)[C@H](Cc1ccc(O)cc1)NC2=O	1.1 nM	0.21 nM	0.38 nM	Not Active	–
C[C@@]12CSC(=N1)c1csc(n1)CNC(=O)C[C@@H](/C=C/CCS)OC(=O)[C@H](CCCN)NC2=O	6.3 nM	3.3 nM	6 nM	Not Active	–
